Measurements from BindingDB's records for doi:10.1038/nchembio.2209 (Dana-Farber Cancer Institute, 2016).
pIC50, pKd, pKi: −log10 of the molar value.

Experiments:
[1] = target: T1, Bromodomain-containing protein 4 [44-168] (Human, UniProt O60885); test: AlphaScreen BRD Binding Assay; settings: pH 7.5; 25 °C
T1 construct: 44-168

[2] = target: T2, Bromodomain testis-specific protein [21-137] (Homo sapiens, UniProt Q58F21); test: AlphaScreen BRD Binding Assay; settings: pH 7.5; 25 °C
T2 construct: 21-137

[3] = target: T1, Bromodomain-containing protein 4 [44-168]; test: BROMOscan Assay
[4] = target: T3, Bromodomain-containing protein 4 [44-168,333-460] (Homo sapiens, UniProt O60885); test: BROMOscan Assay
T3 construct: 44-168,333-460

[5] = target: T4, Bromodomain testis-specific protein [21-137,251-382] (Homo sapiens, UniProt Q58F21); test: BROMOscan Assay
T4 construct: 21-137,251-382

[6] = target: T5, Bromodomain-containing protein 3 [24-144,306-416] (Homo sapiens, UniProt Q15059); test: Bromodomains Assay for DiscoveRx Gene Symbol
T5 construct: 24-144,306-416

[7] = target: T6, Bromodomain testis-specific protein [251-382] (Homo sapiens, UniProt Q58F21); test: Bromodomains Assay for DiscoveRx Gene Symbol
T6 construct: 251-382

[8] = target: T4, Bromodomain testis-specific protein [21-137,251-382]; test: Bromodomains Assay for DiscoveRx Gene Symbol
[9] = target: T7, Bromodomain-containing protein 3 [24-144] (Homo sapiens, UniProt Q15059); test: Bromodomains Assay for DiscoveRx Gene Symbol
T7 construct: 24-144

[10] = target: T8, Bromodomain-containing protein 3 [306-416] (Homo sapiens, UniProt Q15059); test: Bromodomains Assay for DiscoveRx Gene Symbol
T8 construct: 306-416

[11] = target: T2, Bromodomain testis-specific protein [21-137]; test: Bromodomains Assay for DiscoveRx Gene Symbol
[12] = target: T9, Bromodomain-containing protein 2 [71-194,348-455] (Homo sapiens, UniProt P25440); test: Bromodomains Assay for DiscoveRx Gene Symbol
T9 construct: 71-194,348-455
T9 sequence (P25440 as listed by the source): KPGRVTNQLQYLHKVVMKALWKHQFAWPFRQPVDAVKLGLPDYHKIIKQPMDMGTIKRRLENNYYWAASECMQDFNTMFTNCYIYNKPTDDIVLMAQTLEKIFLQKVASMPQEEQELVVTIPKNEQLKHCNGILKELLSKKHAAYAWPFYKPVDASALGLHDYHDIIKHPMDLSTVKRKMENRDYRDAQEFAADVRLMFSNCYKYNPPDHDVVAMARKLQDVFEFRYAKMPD

T8 sequence (Q15059 306-416): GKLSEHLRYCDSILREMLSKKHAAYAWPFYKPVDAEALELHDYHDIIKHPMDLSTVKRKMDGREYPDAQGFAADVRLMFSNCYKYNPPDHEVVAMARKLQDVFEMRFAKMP
T5 sequence (Q15059 as listed by the source): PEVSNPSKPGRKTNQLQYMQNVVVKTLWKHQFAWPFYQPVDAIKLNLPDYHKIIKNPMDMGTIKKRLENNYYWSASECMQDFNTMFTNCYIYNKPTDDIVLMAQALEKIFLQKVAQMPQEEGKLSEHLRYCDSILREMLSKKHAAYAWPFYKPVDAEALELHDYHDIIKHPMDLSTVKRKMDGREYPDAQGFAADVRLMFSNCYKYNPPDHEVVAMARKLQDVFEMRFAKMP
T7 sequence (Q15059 24-144): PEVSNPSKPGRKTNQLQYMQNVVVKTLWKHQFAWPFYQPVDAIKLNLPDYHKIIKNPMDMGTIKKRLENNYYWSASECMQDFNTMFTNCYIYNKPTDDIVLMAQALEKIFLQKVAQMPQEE

| Compound | pIC50 [1] | pIC50 [2] | also measured |
| --- | --- | --- | --- |
| COC(=O)CC1N=C(c2ccc(Cl)cc2)c2c(sc(C(=O)NCCNC(=O)Cn3c(=O)n([C@H](C)c4ccccn4)c4c5cc(OC)c(-c6c(C)noc6C)cc5ncc43)c2C)-n2c(C)nnc21 (stereo partly drawn) [2S+IBET-PEG0 (23)] | 6.36 | 6.22 |  |
| COC(=O)CC1N=C(c2ccc(Cl)cc2)c2c(sc(C(=O)NCCOCCNC(=O)Cn3c(=O)n([C@H](C)c4ccccn4)c4c5cc(OC)c(-c6c(C)noc6C)cc5ncc43)c2C)-n2c(C)nnc21 (stereo partly drawn) [2S+IBET-PEG1 (24)] | 7.74 | 7.39 |  |
| COC(=O)CC1N=C(c2ccc(Cl)cc2)c2c(sc(C(=O)NCCOCCOCCOCCNC(=O)Cn3c(=O)n([C@H](C)c4ccccn4)c4c5cc(OC)c(-c6c(C)noc6C)cc5ncc43)c2C)-n2c(C)nnc21 (stereo partly drawn) [2S+IBET-PEG3 (26)] | 7.95 | 7.50 |  |
| COc1cc2c(cc1-c1c(C)noc1C)ncc1c2n([C@H](C)c2ccccn2)c(=O)n1CC(=O)NCCNC(=O)C[C@@H]1N=C(c2ccc(Cl)cc2)c2c(sc(C)c2C)-n2c(C)nnc21 [6S+IBET-PEG0 (17)] | 6.39 | 6.83 |  |
| COc1cc2c(cc1-c1c(C)noc1C)ncc1c2n([C@H](C)c2ccccn2)c(=O)n1CC(=O)NCCOCCNC(=O)C[C@@H]1N=C(c2ccc(Cl)cc2)c2c(sc(C)c2C)-n2c(C)nnc21 [6S+IBET-PEG1 (18)] | 7.27 | 7.92 |  |
| COc1cc2c(cc1-c1c(C)noc1C)ncc1c2n([C@H](C)c2ccccn2)c(=O)n1CC(=O)NCCOCCOCCOCCNC(=O)C[C@@H]1N=C(c2ccc(Cl)cc2)c2c(sc(C)c2C)-n2c(C)nnc21 [6S+IBET-PEG3 (20)] | 7.56 | 8.24 |  |
| COc1cc2c(cc1-c1c(C)noc1C)ncc1c2n([C@H](C)c2ccccn2)c(=O)n1CC(=O)NCCOCCOCCOCCOCCNC(=O)C[C@@H]1N=C(c2ccc(Cl)cc2)c2c(sc(C)c2C)-n2c(C)nnc21 [6S+IBET-PEG4 (21)] | 7.53 | 8.21 |  |
| COC(=O)C[C@@H]1N=C(c2ccc(Cl)cc2)c2c(sc(C(=O)NCCNC(=O)C[C@@H]3N=C(c4ccc(Cl)cc4)c4c(sc(C)c4C)-n4c(C)nnc43)c2C)-n2c(C)nnc21 [(6S+2S)-PEG0 (6)] | 8.45 | 8.63 | pKd [4]: 10.33; pKd [3]: 10.47 |
| COC(=O)C[C@@H]1N=C(c2ccc(Cl)cc2)c2c(sc(C(=O)NCCOCCOCCOCCNC(=O)C[C@@H]3N=C(c4ccc(Cl)cc4)c4c(sc(C)c4C)-n4c(C)nnc43)c2C)-n2c(C)nnc21 [(6S+2S)-PEG3 (9)] | 8.65 | 9.06 | pKd [4]: 11.12; pKd [3]: 10.54 |
| COC(=O)C[C@@H]1N=C(c2ccc(Cl)cc2)c2c(sc(C(=O)NCCOCCOCCOCCOCCOCCOCCOCCNC(=O)C[C@@H]3N=C(c4ccc(Cl)cc4)c4c(sc(C)c4C)-n4c(C)nnc43)c2C)-n2c(C)nnc21 [(6S+2S)-PEG7 (11)] | 9.10 | 8.80 | pKd [4]: 11.23; pKd [3]: 10.59 |
| COc1cc2c(cc1-c1c(C)noc1C)ncc1c2n([C@H](C)c2ccccn2)c(=O)n1CC(=O)NCCOCCNC(=O)Cn1c(=O)n([C@@H](C)c2ccccn2)c2c3cc(OC)c(-c4c(C)noc4C)cc3ncc21 [IBETx2-PEG1 (30)] | 6.97 | 6.69 |  |
| COc1cc2c(cc1-c1c(C)noc1C)ncc1c2n([C@H](C)c2ccccn2)c(=O)n1CC(=O)NCCOCCOCCOCCNC(=O)Cn1c(=O)n([C@@H](C)c2ccccn2)c2c3cc(OC)c(-c4c(C)noc4C)cc3ncc21 [IBETx2-PEG3 (32)] | 7.27 | 7.19 |  |
| COc1cc2c(cc1-c1c(C)noc1C)ncc1c2n([C@H](C)c2ccccn2)c(=O)n1CC(=O)NCCOCCOCCOCCOCCNC(=O)Cn1c(=O)n([C@@H](C)c2ccccn2)c2c3cc(OC)c(-c4c(C)noc4C)cc3ncc21 [IBETx2-PEG4 (33)] | 7.13 | 7.22 |  |
| Cc1sc2c(c1C)C(c1ccc(Cl)cc1)=NC(CC(=O)NCCOCCOCCOCCOCCOCCOCCOCCNC(=O)C[C@@H]1N=C(c3ccc(Cl)cc3)c3c(sc(C)c3C)-n3c(C)nnc31)c1nnc(C)n1-2 (stereo partly drawn) [MTI (35)] |  |  | pKi [10]: 10.15; pKi [12]: 10.62 |

Further lines, with some results ahead:

| pIC50 [1] | pIC50 [2] | Compound | also measured |
| --- | --- | --- | --- |
| 8.24 | 7.63 | COC(=O)CC1N=C(c2ccc(Cl)cc2)c2c(sc(C(=O)NCCOCCOCCNC(=O)Cn3c(=O)n([C@H](C)c4ccccn4)c4c5cc(OC)c(-c6c(C)noc6C)cc5ncc43)c2C)-n2c(C)nnc21 (stereo partly drawn) [2S+IBET-PEG2 (25)] |  |
| 7.99 | 7.66 | COC(=O)CC1N=C(c2ccc(Cl)cc2)c2c(sc(C(=O)NCCOCCOCCOCCOCCNC(=O)Cn3c(=O)n([C@H](C)c4ccccn4)c4c5cc(OC)c(-c6c(C)noc6C)cc5ncc43)c2C)-n2c(C)nnc21 (stereo partly drawn) [2S+IBET-PEG4 (27)] |  |
| 7.76 | 7.88 | COC(=O)CC1N=C(c2ccc(Cl)cc2)c2c(sc(C(=O)NCCOCCOCCOCCOCCOCCOCCOCCNC(=O)Cn3c(=O)n([C@H](C)c4ccccn4)c4c5cc(OC)c(-c6c(C)noc6C)cc5ncc43)c2C)-n2c(C)nnc21 (stereo partly drawn) [2S+IBET-PEG7 (28)] |  |
| 7.23 | 8.00 | COc1cc2c(cc1-c1c(C)noc1C)ncc1c2n([C@H](C)c2ccccn2)c(=O)n1CC(=O)NCCOCCOCCNC(=O)C[C@@H]1N=C(c2ccc(Cl)cc2)c2c(sc(C)c2C)-n2c(C)nnc21 [6S+IBET-PEG2 (19)] | pKd [3]: 10.21 |
| 7.94 | 8.21 | COc1cc2c(cc1-c1c(C)noc1C)ncc1c2n([C@H](C)c2ccccn2)c(=O)n1CC(=O)NCCOCCOCCOCCOCCOCCOCCOCCNC(=O)C[C@@H]1N=C(c2ccc(Cl)cc2)c2c(sc(C)c2C)-n2c(C)nnc21 [6S+IBET-PEG7 (22)] |  |
| 8.93 |  | COC(=O)C[C@@H]1N=C(c2ccc(Cl)cc2)c2c(sc(C(=O)NCCOCCNC(=O)c3sc4c(c3C)C(c3ccc(Cl)cc3)=N[C@H](CC(=O)OC)c3nnc(C)n3-4)c2C)-n2c(C)nnc21 [(2S+2S)-PEG1 (5)] |  |
|  | 9.24 | COC(=O)C[C@@H]1N=C(c2ccc(Cl)cc2)c2c(sc(C(=O)NCCOCCNC(=O)C[C@@H]3N=C(c4ccc(Cl)cc4)c4c(sc(C)c4C)-n4c(C)nnc43)c2C)-n2c(C)nnc21 [(6S+2S)-PEG1 (7)] | pKd [5]: 10.41; pKi [6]: 9.96; pKd [7]: 10.18; pKi [8]: 9.38; pKi [9]: 9.89; pKi [10]: 11.57; pKi [11]: 9.54 |
| 8.89 | 8.74 | COC(=O)C[C@@H]1N=C(c2ccc(Cl)cc2)c2c(sc(C(=O)NCCOCCOCCNC(=O)C[C@@H]3N=C(c4ccc(Cl)cc4)c4c(sc(C)c4C)-n4c(C)nnc43)c2C)-n2c(C)nnc21 [(6S+2S)-PEG2 (8)] | pKd [4]: 11.04; pKd [3]: 10.85 |
| 8.53 | 8.96 | COC(=O)C[C@@H]1N=C(c2ccc(Cl)cc2)c2c(sc(C(=O)NCCOCCOCCOCCOCCNC(=O)C[C@@H]3N=C(c4ccc(Cl)cc4)c4c(sc(C)c4C)-n4c(C)nnc43)c2C)-n2c(C)nnc21 [(6S+2S)-PEG4 (10)] | pKd [4]: 11.18; pKd [3]: 10.64 |
| 6.68 | 6.69 | COc1cc2c(cc1-c1c(C)noc1C)ncc1c2n([C@H](C)c2ccccn2)c(=O)n1CC(=O)NCCNC(=O)Cn1c(=O)n([C@@H](C)c2ccccn2)c2c3cc(OC)c(-c4c(C)noc4C)cc3ncc21 [IBETx2-PEG0 (29)] |  |
| 6.93 | 6.91 | COc1cc2c(cc1-c1c(C)noc1C)ncc1c2n([C@H](C)c2ccccn2)c(=O)n1CC(=O)NCCOCCOCCNC(=O)Cn1c(=O)n([C@@H](C)c2ccccn2)c2c3cc(OC)c(-c4c(C)noc4C)cc3ncc21 [IBETx2-PEG2 (31)] |  |
| 7.52 | 7.87 | COc1cc2c(cc1-c1c(C)noc1C)ncc1c2n([C@H](C)c2ccccn2)c(=O)n1CC(=O)NCCOCCOCCOCCOCCOCCOCCOCCNC(=O)Cn1c(=O)n([C@@H](C)c2ccccn2)c2c3cc(OC)c(-c4c(C)noc4C)cc3ncc21 [IBETx2-PEG7 (34)] |  |
